According to PMC7256776, “Pharmacokinetic Comparisons of Eight Active Components from Raw Farfarae Flos and Honey-Processed Farfarae Flos after Oral Administration in Rats by UHPLC-MS/MS Approaches” (Journal of Analytical Methods in Chemistry, 2020):
Where two headings read alike, the source gives them in different places.

Key:
[1] = Pharmacokinetic study in rats after oral administration of R-FF or H-FF extract (UHPLC-MS/MS of serum); type: in vivo, SD rats; details: for eliminate rate (judged from t1/2 and MRT values): R-FF group; for AUC(0-inf) / AUC(0-t) / Cmax / Tmax / half-life / MRT last: male, SD, rat, serum, po, 140 g/kg; for AUC(0-inf) / AUC(0-t) / Cmax / Tmax / half-life / MRT last / C max / MRT0–t / T max / t 1/2: mean ± SD; for AUC(0-inf) / AUC(0-t) / Cmax / Tmax / half-life / C max / MRT0–t / T max / t 1/2: n = 6; for MRT last: n = 6, read-out: MRT0–t; for change of T1/2 in H-FF group compared to R-FF group / change of MRT0–t in H-FF group compared to R-FF group: oral, H-FF vs R-FF; for double peak phenomena in serum concentration-time curve: both R-FF and H-FF, Figure 3
Experimental: MS analysis was performed on a TSQ Quantis™ triple quadrupole mass spectrometer (Thermo Scientific™, Vanquish™, (Waltham, MA, USA)) equipped with an autosampler. Chromatographic separation was performed on a Thermo Hypersil GOLD C18 column (100 mm × 2.1 mm, 1.9 µm particles). The column temperature was maintained at 30°C. Through the Thermo Scientific™, TraceFinder™ software was acquired and processed. The mobile phase was composed of acetonitrile (A) and water (both containing 0.3% formic acid) (B) with a gradient elution program (0–5 min:10–19% acetonitrile, 5–8 min:19–25% acetonitrile, 8–28 min:25%–100% acetonitrile, 28–32 min: 100%–10%, and 32–34 min: 10%–10%). The system was re-equilibrated in the initial mobile phase 4.0 min before the next injection. The flow rate was set at 0.3 mL/min, and the injection volume was set as 2 μL.
The analytes were detected on a TSQ Quantis triple quadrupole mass spectrometer by selected reaction monitoring (SRM) equipped with a heated electrospray ionization source operated in negative ion modes. The parameters were set as follows: the sheath gas and the aux gas were set at 30 Arb and 10 Arb, respectively; the ion transfer tube temperature was maintained at 325°C; and the vaporizer temperature was set to 350°C.
5 μL of IS solution containing chloramphenicol 100 ng/ml and 795 μL of acetonitrile were added to a 100 μL drug serum sample for sedimentation of proteins. Subsequently, the 1.5 mL centrifuge tube containing mixture was vortexed for 5 min. After that, the mixture was centrifuged at 12,000 rpm for 20 min at 4°C. Finally, the supernatant fluid was removed and evaporated to dryness under a stream of nitrogen at 35°C. The dried residue was redissolved by 100 μL 50% methanol aqueous solution. And the supernatant prepared above was filtered through 0.22 μm membranes transferred to vials by the UHPLC-MS/MS system for data analysis.
12 adult male SD rats (weighing 250∼300 g) were used in pharmacokinetics experiments and randomly assigned to two groups: R-FF group and H-FF group. Before being administered R-FF or H-FF extract, all the rats fasted but with free access to water for 12 h. The R-FF or H-FF extract was orally administered to the rats (140 g/kg body weight). Aliquots of 0.3 ml blood samples were collected in 1.5 ml heparin lithium-anticoagulant tubes at (0.083, 0.166, 0.333, 0.5, 1, 2, 4, 6, 8, 12, 24, 36, and 48 h) via the postorbital venous plexus veins from each rat after oral administration. The blood sample was immediately centrifuged at 3500 rpm for 5 min, and the supernatant 100 μL serum was transferred into a new centrifuge tube and stored at −80°C until analysis.

[2] = type: in vitro ADME; details: rat plasma, IS 100 ng/mL, n = 3
Experimental: Short-term stability was calculated by keeping the QC samples at room temperature for 4 hours. Long-term stability was investigated by storing the same QC samples at −20°C in a refrigerator for 30 days. The freeze and thaw stability was determined by analyzing the same QC samples after 3 consecutive freeze-thaw (−20 to 20°C) cycles. The postpreparative stability was evaluated by keeping the QC samples at autosampler for 24 hours.

| eliminate rate (judged from t1/2 and MRT values) [1] | AUC(0-inf) ([1]; oral H-FF extract 140 g/kg) [µg·h/mL] | AUC(0-t) ([1]; oral H-FF extract 140 g/kg) [µg·h/mL] | Cmax ([1]; oral H-FF extract 140 g/kg) [ng/mL] | Tmax ([1]; oral H-FF extract 140 g/kg) [h] | half-life ([1]; oral H-FF extract 140 g/kg) [h] | MRT last ([1]; oral H-FF extract 140 g/kg) [h] | AUC(0-inf) ([1]; oral R-FF extract 140 g/kg) [µg·h/mL] | AUC(0-t) ([1]; oral R-FF extract 140 g/kg) [µg·h/mL] | Cmax ([1]; oral R-FF extract 140 g/kg) [ng/mL] | Tmax ([1]; oral R-FF extract 140 g/kg) [h] | half-life ([1]; oral R-FF extract 140 g/kg) [h] | MRT last ([1]; oral R-FF extract 140 g/kg) [h] | change of T1/2 in H-FF group compared to R-FF group [1] | change of MRT0–t in H-FF group compared to R-FF group [1] | double peak phenomena in serum concentration-time curve [1] | Structure (SMILES) | further results |
| --- | --- | --- | --- | --- | --- | --- | --- | --- | --- | --- | --- | --- | --- | --- | --- | --- | --- |
| slow eliminate rate | 401 ± 22 | 351 ± 16.7 | 97300 ± 1150 | 0.33 | 17.6 ± 1.57 | 13.2 ± 0.39 | 242 ± 49.1 | 170 ± 5.98 | 67800 ± 3100 | 0.33 | 21.9 ± 9.25 | 11.2 ± 0.53 | a little shorter | – | – | O=C(/C=C/c1ccc(O)c(O)c1)O[C@H]1[C@H](O)C[C@](O)(C(=O)O)C[C@H]1O [Cryptochlorogenic acid, cryptochlorogenic acid] | – |
| slow eliminate rate | – | – | – | – | – | – | – | – | – | – | – | – | – | increased | – | O=C(C=Cc1ccc(O)c(O)c1)OC1CC(O)(C(=O)O)CC(O)C1OC(=O)C=Cc1ccc(O)c(O)c1 (stereo not drawn) [Isochlorogenic acid C, isochlorogenic acid C] | C max ([1]; oral H-FF extract 140 g/kg): 28183.80 ± 3739.61 ng/mL; MRT0–t ([1]; oral H-FF extract 140 g/kg): 16.42 ± 0.84 h; T max ([1]; oral H-FF extract 140 g/kg): 0.33 ± 0.00 h; t 1/2 ([1]; oral H-FF extract 140 g/kg): 22.14 ± 9.73 h; C max ([1]; oral R-FF extract 140 g/kg): 12916.78 ± 3117.99 ng/mL; MRT0–t ([1]; oral R-FF extract 140 g/kg): 14.32 ± 1.56 h; T max ([1]; oral R-FF extract 140 g/kg): 0.33 ± 0.00 h; t 1/2 ([1]; oral R-FF extract 140 g/kg): 20.36 ± 5.22 h |
| slow eliminate rate | 66.8 ± 12.2 | 24.1 ± 2.06 | 4550 ± 235 | 0.33 | 78.9 ± 26 | 12.7 ± 0.38 | 35.2 ± 9.99 | 20.2 ± 0.405 | 4470 ± 311 | 0.33 | 32.3 ± 17.6 | 14.3 ± 0.25 | – | – | obvious double peak phenomena | O=C(O)/C=C/c1ccc(O)c(O)c1 [Caffeic acid, caffeic acid] | – |
| – | – | – | – | – | – | – | – | – | – | – | – | – | – | – | – | O=C(N[C@H](CO)[C@H](O)c1ccc([N+](=O)[O-])cc1)C(Cl)Cl [Chloramphenicol (IS), chloramphenicol] | Freeze-thaw stability (RE%) ([2]; 3 freeze-thaw cycles (−20 to 20°C)): −4.77%; Short-term stability (RE%) ([2]; room temperature 4 hours): 0.74%; Long-term stability (RE%) ([2]; −20°C 30 days): −2.22% |
| slow eliminate rate | 117 ± 15.9 | 95.7 ± 6.56 | 24700 ± 3220 | 0.33 | 14.7 ± 3.88 | 10.9 ± 0.44 | 87 ± 8.34 | 56 ± 4.22 | – | 0.33 | 30.1 ± 6.85 | 12.5 ± 1.19 | a little shorter | – | obvious double peak phenomena | O=C(C=Cc1ccc(O)c(O)c1)OC1CC(O)(C(=O)O)CC(O)C1O (stereo not drawn) [Neochlorogenic acid, neochlorogenic acid] | – |
| slow eliminate rate | 455 ± 14.6 | – | 52300 ± 3010 | 0.33 | 16.8 ± 5.09 | 15.2 ± 0.19 | 201 ± 7.21 | 194 ± 6.58 | 25200 ± 1590 | 0.33 | – | 10.9 ± 1.04 | – | increased | – | O=C(C=Cc1ccc(O)c(O)c1)OC1CC(O)(C(=O)O)CC(O)C1OC(=O)C=Cc1ccc(O)c(O)c1 (stereo not drawn) [Isochlorogenic acid B, isochlorogenic acid B] | t 1/2 ([1]; oral R-FF extract 140 g/kg): 9.68 ± 1.36 h |
| slow eliminate rate | 428 ± 41.6 | 281 ± 10.8 | 80400 ± 6350 | 0.33 | 32.9 ± 4.87 | 11.1 ± 0.16 | 236 ± 75.6 | 167 ± 21.8 | 75600 ± 3060 | 0.33 | 33.4 ± 3.36 | 10.6 ± 0.82 | a little shorter | – | – | O=C(/C=C/c1ccc(O)c(O)c1)O[C@@H]1C[C@](O)(C(=O)O)C[C@@H](O)[C@H]1O [Chlorogenic acid, chlorogenic acid] | – |
| fast eliminate rate | 2.25 ± 0.442 | 1.76 ± 0.224 | 380 ± 5.89 | 0.33 | 3.31 ± 0.68 | 3.33 ± 0.11 | 2.14 ± 0.196 | 0.853 ± 0.0294 | 253 ± 25.7 | 0.33 | 5.07 ± 1.87 | 4.21 ± 0.11 | – | – | obvious double peak phenomena | COc1cc(/C=C/C(=O)O)ccc1O [Ferulic acid, ferulic acid] | – |

| Structure (SMILES) | eliminate rate (judged from t1/2 and MRT values) [1] | AUC(0-inf) ([1]; oral H-FF extract 140 g/kg) [µg·h/mL] | AUC(0-t) ([1]; oral H-FF extract 140 g/kg) [µg·h/mL] | Cmax ([1]; oral H-FF extract 140 g/kg) [ng/mL] | Tmax ([1]; oral H-FF extract 140 g/kg) [h] | half-life ([1]; oral H-FF extract 140 g/kg) [h] | MRT last ([1]; oral H-FF extract 140 g/kg) [h] | AUC(0-inf) ([1]; oral R-FF extract 140 g/kg) [µg·h/mL] | AUC(0-t) ([1]; oral R-FF extract 140 g/kg) [µg·h/mL] | Cmax ([1]; oral R-FF extract 140 g/kg) [ng/mL] | Tmax ([1]; oral R-FF extract 140 g/kg) [h] | half-life ([1]; oral R-FF extract 140 g/kg) [h] | MRT last ([1]; oral R-FF extract 140 g/kg) [h] | change of T1/2 in H-FF group compared to R-FF group [1] | change of MRT0–t in H-FF group compared to R-FF group [1] | double peak phenomena in serum concentration-time curve [1] | further results |
| --- | --- | --- | --- | --- | --- | --- | --- | --- | --- | --- | --- | --- | --- | --- | --- | --- | --- |
| C[C@@H]1O[C@@H](OC[C@H]2O[C@@H](Oc3c(-c4ccc(O)c(O)c4)oc4cc(O)cc(O)c4c3=O)[C@H](O)[C@@H](O)[C@@H]2O)[C@H](O)[C@H](O)[C@H]1O [Rutin, rutin] | slow eliminate rate | 105 ± 9.98 | 64.6 ± 4.91 | 7040 ± 429 | 0.39 ± 0.09 | 14.3 ± 2.28 | 22.7 ± 0.82 | 211 ± 37.9 | 100 ± 9.13 | 7430 ± 446 | 0.33 | 30.7 ± 14 | 18.91 ± 0.17 | – | increased | obvious double peak phenomena | – |
